From patent US12304890B2, “R-type pyridyloxycarboxylic acid, salt and ester derivative thereof, and preparation method therefor, and herbicidal composition and application thereof” (Qingdao Kingagroot Chemical Compound Co., Ltd., priority 2018, dated 2025)

Columns and labels:
Format in all cases: in vivo
[1] = system: Echinochloa crusgalli; experiment: Post-emergence test experiment, Echinochloa crusgalli; conditions: 1000 g a.i./ha, 3 weeks in greenhouse, fresh weight inhibition
Summary of the method: (§1)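 Growth inhibition is given as reduction in fresh weight, assessed 3 weeks post-treatment in the greenhouse. Spray solutions (acetone, tween-80, water, with 1.5 L/ha methyl oleate concentrate synergist) were applied to weeds and crops at 2-3 leaves, 2 weeks from sowing.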

[2] = system: Digitaria sanguinalis; experiment: Post-emergence test experiment, Digitaria sanguinalis; conditions: 1000 g a.i./ha, 3 weeks in greenhouse, fresh weight inhibition
Summary of the method: as §1

[3] = system: Monocotyledonous and dicotyledonous weed seeds and main crop seeds; experiment: Post-emergence test experiment, other weeds and crops (Table 4, 1000 g a.i./ha); conditions: 3 weeks in greenhouse, fresh weight inhibition
Summary of the method: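 Growth inhibition is scored on fresh weight. Spray solutions were made in acetone with tween-80, diluted in water, plus 1.5 L/ha methyl oleate emulsible concentrate. Plants from greenhouse-grown weed and crop seeds were treated post-emergence at 2-3 leaves, 2 weeks after sowing.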

SMILES	Activity level (growth inhibition rate), Echinochloa crusgalli [1]	Activity level (growth inhibition rate), Digitaria sanguinalis [2]	Activity level (growth inhibition rate), Abutilon theophrasti Medic. [3]	Activity level (growth inhibition rate), Galium aparine [3]	Activity level (growth inhibition rate), Monochoria Vaginalis [3]
C[C@@H](Oc1nc(F)c(Cl)c(N)c1Cl)C(=O)Sc1ccncc1 [Compound 2-363]	5 (Level 5: the growth inhibition rate is greater than 85%)	5 (Level 5: the growth inhibition rate is greater than 85%)	5 (Level 5: the growth inhibition rate is greater than 85%)	5 (Level 5: the growth inhibition rate is greater than 85%)	5 (Level 5: the growth inhibition rate is greater than 85%)
C[C@@H](Oc1nc(F)c(Cl)c(N)c1Cl)C(=O)SC(N)=O [Compound 2-373]	5 (Level 5: the growth inhibition rate is greater than 85%)	5 (Level 5: the growth inhibition rate is greater than 85%)	5 (Level 5: the growth inhibition rate is greater than 85%)	5 (Level 5: the growth inhibition rate is greater than 85%)	5 (Level 5: the growth inhibition rate is greater than 85%)
CC(C)CCCCCSC(=O)[C@@H](C)Oc1nc(F)c(Cl)c(N)c1Cl [Compound 2-160]	5 (Level 5: the growth inhibition rate is greater than 85%)	5 (Level 5: the growth inhibition rate is greater than 85%)	5 (Level 5: the growth inhibition rate is greater than 85%)	5 (Level 5: the growth inhibition rate is greater than 85%)	5 (Level 5: the growth inhibition rate is greater than 85%)
CCCC(C)CSC(=O)[C@@H](C)Oc1nc(F)c(Cl)c(N)c1Cl (some centres unmarked) [Compound 2-104]	5 (Level 5: the growth inhibition rate is greater than 85%)	5 (Level 5: the growth inhibition rate is greater than 85%)	5 (Level 5: the growth inhibition rate is greater than 85%)	5 (Level 5: the growth inhibition rate is greater than 85%)	5 (Level 5: the growth inhibition rate is greater than 85%)
Cc1ccc(COC(=O)C(C)Oc2nc(F)c(Cl)c(N)c2Cl)cc1 (centres unmarked) [Compound 2-306]	5 (Level 5: the growth inhibition rate is greater than 85%)	5 (Level 5: the growth inhibition rate is greater than 85%)	5 (Level 5: the growth inhibition rate is greater than 85%)	5 (Level 5: the growth inhibition rate is greater than 85%)	5 (Level 5: the growth inhibition rate is greater than 85%)
CC(C)CCOC(=O)[C@@H](C)Oc1nc(F)c(Cl)c(N)c1Cl [Compound 2-89]	5 (Level 5: the growth inhibition rate is greater than 85%)	5 (Level 5: the growth inhibition rate is greater than 85%)	5 (Level 5: the growth inhibition rate is greater than 85%)	5 (Level 5: the growth inhibition rate is greater than 85%)	5 (Level 5: the growth inhibition rate is greater than 85%)
CC(Oc1nc(F)c(Cl)c(N)c1Cl)C(=O)OCc1ccc(F)cc1 (centres unmarked) [Compound 2-312]	5 (Level 5: the growth inhibition rate is greater than 85%)	5 (Level 5: the growth inhibition rate is greater than 85%)	5 (Level 5: the growth inhibition rate is greater than 85%)	5 (Level 5: the growth inhibition rate is greater than 85%)	5 (Level 5: the growth inhibition rate is greater than 85%)
CCC(C)CCOC(=O)[C@@H](C)Oc1nc(F)c(Cl)c(N)c1Cl (some centres unmarked) [Compound 2-105]	5 (Level 5: the growth inhibition rate is greater than 85%)	5 (Level 5: the growth inhibition rate is greater than 85%)	5 (Level 5: the growth inhibition rate is greater than 85%)	5 (Level 5: the growth inhibition rate is greater than 85%)	5 (Level 5: the growth inhibition rate is greater than 85%)
CC(Oc1nc(F)c(Cl)c(N)c1Cl)C(=O)OCc1ccccc1Cl (centres unmarked) [Compound 2-314]	5 (Level 5: the growth inhibition rate is greater than 85%)	5 (Level 5: the growth inhibition rate is greater than 85%)	5 (Level 5: the growth inhibition rate is greater than 85%)	5 (Level 5: the growth inhibition rate is greater than 85%)	5 (Level 5: the growth inhibition rate is greater than 85%)
C[C@@H](Oc1nc(F)c(Cl)c(N)c1Cl)C(=O)OCc1cccc2ccccc12 [Compound 2-341]	5 (Level 5: the growth inhibition rate is greater than 85%)	5 (Level 5: the growth inhibition rate is greater than 85%)	5 (Level 5: the growth inhibition rate is greater than 85%)	5 (Level 5: the growth inhibition rate is greater than 85%)	5 (Level 5: the growth inhibition rate is greater than 85%)
CC(C)COC(=O)[C@@H](C)Oc1nc(F)c(Cl)c(N)c1Cl [Compound 2-79]	5 (Level 5: the growth inhibition rate is greater than 85%)	5 (Level 5: the growth inhibition rate is greater than 85%)	5 (Level 5: the growth inhibition rate is greater than 85%)	5 (Level 5: the growth inhibition rate is greater than 85%)	5 (Level 5: the growth inhibition rate is greater than 85%)
CCCCCCOC(=O)[C@@H](C)Oc1nc(F)c(Cl)c(N)c1Cl [Compound 2-101]	5 (Level 5: the growth inhibition rate is greater than 85%)	5 (Level 5: the growth inhibition rate is greater than 85%)	5 (Level 5: the growth inhibition rate is greater than 85%)	5 (Level 5: the growth inhibition rate is greater than 85%)	5 (Level 5: the growth inhibition rate is greater than 85%)
CCCC(C)OC(=O)[C@@H](C)Oc1nc(F)c(Cl)c(N)c1Cl (some centres unmarked) [Compound 2-93]	5 (Level 5: the growth inhibition rate is greater than 85%)	5 (Level 5: the growth inhibition rate is greater than 85%)	5 (Level 5: the growth inhibition rate is greater than 85%)	5 (Level 5: the growth inhibition rate is greater than 85%)	5 (Level 5: the growth inhibition rate is greater than 85%)
CC(Oc1nc(F)c(Cl)c(N)c1Cl)C(=O)OCC=CCl (centres unmarked) [Compound 2-285]	5 (Level 5: the growth inhibition rate is greater than 85%)	5 (Level 5: the growth inhibition rate is greater than 85%)	5 (Level 5: the growth inhibition rate is greater than 85%)	5 (Level 5: the growth inhibition rate is greater than 85%)	5 (Level 5: the growth inhibition rate is greater than 85%)
C[C@@H](Oc1nc(F)c(Cl)c(N)c1Cl)C(=O)OCCCl [Compound 2-277]	5 (Level 5: the growth inhibition rate is greater than 85%)	5 (Level 5: the growth inhibition rate is greater than 85%)	5 (Level 5: the growth inhibition rate is greater than 85%)	5 (Level 5: the growth inhibition rate is greater than 85%)	5 (Level 5: the growth inhibition rate is greater than 85%)
C[C@@H](Oc1nc(F)c(Cl)c(N)c1Cl)C(=O)OCc1ccc2ccccc2c1 [Compound 2-340]	5 (Level 5: the growth inhibition rate is greater than 85%)	5 (Level 5: the growth inhibition rate is greater than 85%)	5 (Level 5: the growth inhibition rate is greater than 85%)	5 (Level 5: the growth inhibition rate is greater than 85%)	5 (Level 5: the growth inhibition rate is greater than 85%)
